Legend:
[1] = biological target: C-8 sterol isomerase ERG2 (Saccharomyces cerevisiae S288c, UniProt P32352); test: Affinity for ERG2 of Saccharomyces cerevisiae using [3H]ifenprodil or (+)-[3H]pentazocine radioligand
[2] = biological target: 3-beta-hydroxysteroid-Delta(8),Delta(7)-isomerase (Homo sapiens, UniProt Q15125); test: Affinity for human EMP expressed in ERG2 deficient strain of Saccharomyces cerevisiae using [3H]ifenprodil or (+)-[3H]pentazocine as radioligand
3-beta-hydroxysteroid-Delta(8),Delta(7)-isomerase, sequence (Q15125 whole entry): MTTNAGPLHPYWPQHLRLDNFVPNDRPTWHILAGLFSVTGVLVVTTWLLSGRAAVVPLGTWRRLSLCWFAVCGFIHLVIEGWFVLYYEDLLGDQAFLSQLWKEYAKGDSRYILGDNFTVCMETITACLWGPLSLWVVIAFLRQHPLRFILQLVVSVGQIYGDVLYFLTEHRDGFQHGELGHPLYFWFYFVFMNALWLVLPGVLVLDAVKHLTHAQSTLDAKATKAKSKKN

C-8 sterol isomerase ERG2, sequence (P32352 whole entry): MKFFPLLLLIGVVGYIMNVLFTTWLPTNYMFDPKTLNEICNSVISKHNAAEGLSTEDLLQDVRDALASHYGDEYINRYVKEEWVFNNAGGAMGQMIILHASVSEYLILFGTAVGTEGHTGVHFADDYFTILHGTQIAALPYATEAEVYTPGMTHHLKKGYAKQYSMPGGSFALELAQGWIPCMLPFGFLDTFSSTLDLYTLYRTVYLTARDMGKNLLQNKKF

Row | SMILES | Ki ([1]; read-out: Ki) | Ki [2] | Ki [1]
1 | C[C@H]1CCC2[C@@H](C)[C@H]3[C@H](C[C@H]4C5CC=C6C[C@@H](O)CC[C@]6(C)[C@H]5CC[C@]34C)N2C1 (single isomer, unassigned) | > 100000 nM | 441 nM | 
2 | CC1CC[C@@]2(NC1)O[C@H]1C[C@H]3[C@@H]4CC=C5C[C@@H](O)CC[C@]5(C)[C@H]4CC[C@]3(C)[C@H]1[C@@H]2C (stereo not given in full) | 1170 nM | > 100000 nM | 
3 | CC1=C2C(=O)[C@H]3[C@@H](CC=C4C[C@@H](O)CC[C@@]43C)[C@@H]2CC[C@]12O[C@@H]1C[C@H](C)CN[C@H]1[C@H]2C [JERVINE] | 284 nM | > 100000 nM | 
4 | CC(C)=CCN1CC[C@@]2(C)c3cc(O)ccc3CC1[C@H]2C | 1000 nM | 500 nM | 
5 | CCN(CC)CCOc1ccc(/C(=C(\Cl)c2ccccc2)c2ccccc2)cc1 [ZUCLOMIPHENE] | 2 nM | 2 nM | 
6 | CN(c1nc2ccccc2s1)C1CCN(CCCCOc2ccccc2)C1 (stereo not given) | 169 nM | 450 nM | 
7 | C=CCN1CC[C@@]2(C)c3cc(O)ccc3CC1[C@H]2C | 4700 nM | 9300 nM | 
8 | CCCCCCCCCCCCCN1C[C@@H](C)O[C@@H](C)C1 | 0.09 nM | 1 nM | 
9 | N=C(NCc1ccccc1)Nc1nc(-c2cc3ccccc3[nH]2)cs1 | 31700 nM | 8500 nM | 
10 | CC(C)CCCC(C)CCCC(C)N1CC[C@H]2[C@H](C)[C@@H](O)CC[C@]2(C)C1 (stereo not given in full) | 0.4 nM | 0.6 nM | 
11 | CC1=C2C[C@H]3[C@@H](CC=C4C[C@@H](O)CC[C@@]43C)[C@@H]2CC[C@]12O[C@]1(C)C[C@H](C)CN[C@H]1[C@H]2C | 500 nM | 654 nM | 
12 | O=C(c1ccc(OCCN2CCCCC2)cc1)c1c(-c2ccc(O)cc2)sc2cc(O)ccc12 [RALOXIFENE] | 66 nM | 1 nM | 
13 | OCCN1CCN(CCCN2c3ccccc3C=Cc3ccccc32)CC1 [OPIPRAMOL] | 17 nM | 13 nM | 
14 | C[C@]12CC[C@H]3[C@@H](CCC4=CC(=O)CC[C@@]43C)[C@@H]1CC[C@@H]2O [TESTOSTERONE] | 7760 nM | > 100000 nM | 
15 | N=C(NCCSC(c1ccccc1)c1ccccc1)NCCc1cnc[nH]1 | 170 nM | 39 nM | 
16 | CC(Cc1ccc(C(C)(C)C)cc1)CN1C[C@@H](C)O[C@@H](C)C1 (stereo not given in full) [FENPROPIMORPH] | 0.05 nM | 30 nM | 
17 | CC(C)[C@](C#N)(CCCN(C)CCc1ccccc1)c1ccccc1 | 65 nM | 6 nM | 
18 | COc1cc(OC)c(C(=O)CCCN2CCCC2)c(OC)c1 [BUFLOMEDIL] | 7150 nM | 60 nM | 
19 | CCN(CC)CCO[C@H]1CC[C@@]2(C)C(=CC[C@@H]3[C@@H]2CC[C@]2(C)C(=O)CC[C@@H]32)C1 | 0.2 nM | 2 nM | 
20 | CC/C(=C(\c1ccccc1)c1ccc(OCCN(C)C)cc1)c1ccccc1 [TAMOXIFEN] |  |  | 1500 nM
21 | CCCCN1CCC2(CCCc3ccccc32)CC1 | 5 nM | 1 nM | 

Row | SMILES | Ki ([1]; read-out: Ki) | Ki [2] | Ki [1]
22 | CN(C/C=C/c1ccccc1)Cc1cccc2ccccc12 [NAFTIFINE] | 310 nM | 1500 nM | 
23 | C[C@]12C[C@H](O)[C@H]3[C@@H](CCC4=CC(=O)CC[C@@]43C)[C@@H]1CC[C@@H]2C(=O)CO [CORTICOSTERONE] | > 100000 nM | > 100000 nM | 
24 | CCN(CC)CCOc1ccc(/C(=C(/Cl)c2ccccc2)c2ccccc2)cc1 [ENCLOMIPHENE] | 160 nM | 1 nM | 
25 | CCCN(CCC)CCc1ccc(OC)c(OCCc2ccccc2)c1 |  | 15 nM | 
26 | CCN(CC)CCOc1ccc(C(O)(Cc2ccc(Cl)cc2)c2ccc(C)cc2)cc1 (stereo not given) [TRIPARANOL] | 2 nM | 11 nM | 
27 | CC(=O)[C@H]1CC[C@H]2[C@@H]3CCC4=CC(=O)CC[C@]4(C)[C@H]3CC[C@]12C [PROGESTERONE] | 4430 nM | > 100000 nM | 
28 | CC(C)[C@@](C#N)(CCCN(C)CCc1ccccc1)c1ccccc1 [LEVEMOPAMIL] | 74 nM | 18 nM | 
29 | O=C(O)c1ccc(CCN2CCN(C/C=C/c3ccc(Cl)cc3)CC2)cc1 | 16500 nM | 34000 nM | 
30 | O=C(CCCN1CCC(O)(c2ccc(Cl)cc2)CC1)c1ccc(F)cc1 [HALOPERIDOL] | 0.5 nM | 190 nM | 
31 | CCCN1CCC[C@H](c2cccc(O)c2)C1 | 1200 nM | 2200 nM | 
32 | CCN(C/C=C/c1ccc(C2CCCCC2)c(Cl)c1)C1CCCCC1 | 9 nM | 3 nM | 
33 | CCCCCCCOc1ccccc1NC(=O)OC(C)CN(CC)CC (stereo not given) | 2800 nM | 51 nM | 
34 | Cc1ccccc1NC(=N)Nc1ccccc1C [DITOLYLGUANIDINE] | 2000 nM | 6700 nM | 
35 | COc1ccc2c(c1)CCC(c1ccccc1)=C2c1ccc(OCCN2CCCC2)cc1 [NAFOXIDINE] | 232 nM |  | 
36 | CC1CC[C@]2(NC1)O[C@H]1C[C@H]3[C@@H]4CC[C@H]5C[C@@H](O)CC[C@]5(C)[C@H]4CC[C@]3(C)[C@H]1[C@@H]2C (stereo not given in full) | 387 nM | 583 nM | 
37 | O=C(CCCN1CCC(O)(c2cccc(C(F)(F)F)c2)CC1)c1ccc(F)cc1 [TRIFLUPERIDOL] | 0.15 nM | 165 nM | 
38 | C[C@H]([C@@H](O)c1ccc(O)cc1)N1CCC(Cc2ccccc2)CC1 [(S,R)-IFENPRODIL] | 1 nM |  | 
39 | CN(C/C=C/C#CC(C)(C)C)Cc1cccc2ccccc12 [TERBINAFINE] | > 50000 nM | > 50000 nM | 
40 | CN1CCN(CCCN2c3ccccc3Sc3ccc(C(F)(F)F)cc32)CC1 [TRIFLUOPERAZINE] | 500 nM | 8 nM | 
41 | CC/C(=C(/CC)c1ccc(OCCN(CC)CC)cc1)c1ccc(OCCN(CC)CC)cc1 | 0.7 nM | 54 nM | 
42 | CCCCCCCCCCCCC(C#N)(CCCN(C)CCc1ccccc1)c1ccccc1 (stereo not given) [RONIPAMIL] | 13 nM | 2 nM | 

From ChEMBL document CHEMBL1140325, “Discovery of high-affinity ligands of sigma1 receptor, ERG2, and emopamil binding protein by pharmacophore modeling and virtual screening” (J Med Chem, 2005)
